According to US9526785B2, “Pharmaceuticals for oral delivery” (Enteris BioPharma, Inc., priority 2013, dated 2016):
Like-named read-outs stand apart in the source and are kept apart here.

Experiment: Tigecycline plasma PK and % F after intraduodenal (ID) injection in anesthetized rats
Format: in vivo, Sprague-Dawley Rats
Settings: female, Sprague-Dawley, rat, plasma
Experimental: Animals weighed approximately 250 g at the time of testing. Rats were fasted overnight (with water available), prior to dosing.
Intravenous (IV) doses were administered as a bolus injection into the left carotid […] at a dose volume of 1.6 mL/kg. Intraduodenal doses were administered as bolus injections into the duodenum at a dose volume of 1.2 mL/kg.
An additional study was conducted exploring the effect of formulation pH at constant CA and LLC concentrations (RA867).
Female rats were maintained in groups of 3 per polycarbonate (or equivalent) shoebox cage with fresh wood chip bedding at 20-22° C. under a 12 hour on/off light:dark cycle. […] After the rats went limp they were injected intraperitoneally (IP) with 0.1 mL ketamine/xylazine. The anesthetic state was maintained by IP injection of ketamine/xylazine on an as needed basis. Animal weights were determined post-anesthesia induction.
An indwelling catheter for blood sampling was inserted into the right carotid artery by exposing the trachea with Mayo scissors, clamping the bottom of the […] and tying off the top with surgical suture. The area between was nicked with small sharp scissors and Intramedic polyethylene tubing was inserted into the nicked area. The artery with the tubing was sealed with suture to prevent leakage. A 23-gauge Intramedic Luer Stub Adapter was inserted into the cannula and attached to a 3 way valve which was connected to a 3 cc syringe filled with 0.9% normal saline and a 1 cc syringe filled with 5 U/mL sodium heparin for blood sampling.
An intraduodenal injection was utilized to mimic oral delivery of an enterically coated capsule or tablet formulation. […] Mayo scissors were used to expose the duodenum and the site of administration was identified by measuring 5 cm from the junction of the stomach and the duodenum towards the jejunum. The measured site was identified by inserting a small piece of surgical suture underneath the site for injection. After the formulation was injected, the abdominal cavity was closed with surgical clips.
Blood samples were collected in tubes containing 20 μL 180 mM EDTA. The tubes were maintained on ice and then centrifuged at approximately 3000 rpm at 4° C. for 5 minutes. Plasma was harvested immediately after centrifugation of the samples and stored at −20° C. pending analysis.
Minocycline (VWR international) was used as an internal standard. Sample processing/clean-up of plasma samples was carried out offline by protein precipitation with acidified acetonitrile.
The HPLC system consisted of Shimadzu SIL-HTc HPLC system equipped with dual Shimadzu LC-10ADvp isopumps, a Shimadzu CTO-10ASvp column temperature controller and a Shimadzu SPD-10Avp variable wavelength detector. […] Mobile phase A consisted of 23 mM phosphate buffer pH 2.5 with 6 mM 1-octanesulfonic acid, while mobile phase B consisting of pure acetonitrile. […] The mobile phase flow rate was 1.2 mL/min. Detection was performed using the SPD-10Avp variable wavelength detector set at 350 nm, with a sensitivity of 0.001 aufs.
The samples were then centrifuged under refrigeration at 13 k rpm for 30 minutes. The supernatant was taken and the liquid was removed to dryness in a turbovap. The samples were then reconstituted in 55 μL 0.1M phosphate buffer, pH 3.8. Samples were maintained at 10° C. while on the autoinjector during sequence. The injection volume was 50 μL. The unknown concentration in rat plasma samples was determined by interpolation of the peak area ratios of analyte:internal standard versus the ratio of their nominal concentrations into the regression line obtained from calibration standards spiked in pooled rat plasma. No regression weighting was used for the calculations. […] The calibration curve covered the range of 0.05 μg/mL to 5.0 μg/mL.

[1] = […], RA869, ID, 400 mM CA/26 mM LLC
[2] = other: intraduodenal bolus injection, 4.8 mg/kg, ID, PBS, 4.8 mg/kg (RA851)
[3] = other: intraduodenal bolus injection, 4.8 mg/kg, pH 3.5, ID, 100 mM CA (pH 3.5), 26 mM LLC, 4.8 mg/kg (RA851)
[4] = other: intraduodenal bolus injection, 4.8 mg/kg, pH 3.5, ID, 400 mM CA (pH 3.5), 26 mM LLC, 4.8 mg/kg (RA851), parent Tigecycline peak only
[5] = other: intraduodenal bolus injection, 9 mg/kg, ID, PBS, 9.0 mg/kg (RA853), animal RA853-4 only
[6] = other: intraduodenal bolus injection, 9 mg/kg, pH 3.5, ID, 100 mM CA (pH 3.5), 26 mM LLC, 9.0 mg/kg (RA853)
[7] = other: intraduodenal bolus injection, 9 mg/kg, pH 3.5, ID, 400 mM CA (pH 3.5), 26 mM LLC, 9.0 mg/kg (RA853), parent Tigecycline peak only

CN(C)c1cc(NC(=O)CNC(C)(C)C)c(O)c2c1C[C@H]1C[C@H]3[C@H](N(C)C)C(O)=C(C(N)=O)C(=O)[C@@]3(O)C(O)=C1C2=O [Tigecycline] gave a Cmax ([…], RA869, ID, 26 mM LLC only, […], read-out: Cmax, mean) of 105 ng/mL, an AUC(0-t) [1] of 222 ng·h/mL and a Tmax [1] of 15 min. The bioavailability ([…], RA869, ID, 400 mM CA/26 mM LLC, […], read-out: % F, mean) was 21.6%, the Cmax ([…], RA869, ID, 400 mM CA/26 mM LLC, […], read-out: Cmax, mean) was 246 ng/mL and the concentration at 0 min [2] was 0 ng/mL. The concentration at 10 min [2] was 31 ng/mL, the concentration at 20 min [2] was 31 ng/mL and the concentration at 30 min [2] was 33 ng/mL. For the same compound, the concentration at 60 min [2] was 0 ng/mL, the concentration at 120 min [2] was 53 ng/mL and the concentration at 240 min [2] was 66 ng/mL. For the same compound, the concentration at 0 min [3] was 0 ng/mL, the concentration at 10 min [3] was 710 ng/mL and the concentration at 20 min [3] was 672 ng/mL. The concentration at 30 min [3] was 601 ng/mL, the concentration at 60 min [3] was 398 ng/mL and the concentration at 120 min [3] was 306 ng/mL. The concentration at 0 min [4] was 0 ng/mL, the concentration at 10 min [4] was 920 ng/mL and the concentration at 20 min [4] was 788 ng/mL. For the same compound, the concentration at 30 min [4] was 618 ng/mL, the concentration at 60 min [4] was 455 ng/mL and the concentration at 120 min [4] was 345 ng/mL. It also gave a concentration at 240 min [4] of 386 ng/mL, a concentration at 0 min [5] of 0 ng/mL and a concentration at 10 min [5] of 0 ng/mL. It also gave a concentration at 20 min [5] of 0 ng/mL, a concentration at 30 min [5] of 391 ng/mL and a concentration at 60 min [5] of 440 ng/mL. The concentration at 120 min [5] was 129 ng/mL, the concentration at 0 min [6] was 0 ng/mL and the concentration at 10 min [6] was 1770 ng/mL. It also gave a concentration at 20 min [6] of 1980 ng/mL, a concentration at 30 min [6] of 1350 ng/mL and a concentration at 60 min [6] of 608 ng/mL. The concentration at 120 min [6] was 273 ng/mL, the concentration at 0 min [7] was 0 ng/mL and the concentration at 10 min [7] was 2490 ng/mL. The concentration at 20 min [7] was 2160 ng/mL, the concentration at 30 min [7] was 1760 ng/mL and the concentration at 60 min [7] was 1060 ng/mL. It also gave a concentration at 120 min [7] of 683 ng/mL, a bioavailability (other: intraduodenal bolus injection, pH 3.5, ID, 400 mM CA pH 3.5 and 26 mM LLC (RA851, RA853), read-out: absolute % F) of about 22% and a bioavailability (other: intraduodenal injection, 4.8 mg/kg, ID, PBS, 4.8 mg/kg (RA851), relative to 0.64 mg/kg IV, read-out: % F, Mean) of 1.6%. It also gave a bioavailability (other: intraduodenal injection, 4.8 mg/kg, pH 3.5, ID, 100 mM CA (pH 3.5), 26 mM LLC, 4.8 mg/kg (RA851), relative to 0.64 mg/kg IV, read-out: % F, Mean) of 10.9%, a bioavailability (other: intraduodenal injection, 9 mg/kg, ID, PBS, 9.0 mg/kg (RA853), without animal RA853-6, relative to 12 mg/kg IV, read-out: % F, Mean) of 2.8% and a Cmax (other: intraduodenal injection, 9 mg/kg, ID, PBS, 9.0 mg/kg (RA853), suspected injection site leakage, read-out: Cmax, one animal not included in the mean) of 1110 ng/mL. It also gave a bioavailability (other: intraduodenal injection, 9 mg/kg, pH 3.5, ID, 100 mM CA (pH 3.5), 26 mM LLC, 9.0 mg/kg (RA853), relative to 12 mg/kg IV, read-out: % F, Mean) of 11.4%, a bioavailability (other: intraduodenal injection, 9 mg/kg, pH 3.5, ID, 400 mM CA (pH 3.5), 26 mM LLC, 9.0 mg/kg (RA853), parent Tigecycline peak only, relative to 12 mg/kg IV, read-out: % F, Mean) of 21.8% and a bioavailability (other: intraduodenal injection, […], RA869, ID, 26 mM LLC only, […], read-out: % F, mean) of 9%. The bioavailability (other: intraduodenal injection, […], RA869, ID, 400 mM CA/26 mM LLC, […], read-out: % F, mean) was about 22% and the bioavailability (other: intraduodenal injection, pH 3.5, ID, 100 mM CA pH 3.5 and 26 mM LLC (RA851, RA853), read-out: absolute % F) was about 11%.
